Laboratory results taken from PubChem BioAssay (NCI).
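Following 48 hours of exposure in 96-well plates, responses at five concentrations were used to interpolate endpoints linearly. The concentration for full growth arrest is given as TGI.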

Columns and labels:
Assay in all cases: NCI tumour cell line growth inhibition, 48 h
[1] = tested on: 786-0 renal
[2] = tested on: A498 renal
[3] = tested on: A549 NSCLC
[4] = tested on: ACHN renal
[5] = tested on: CAKI-1 renal
[6] = tested on: CCRF-CEM leukemia
[7] = tested on: COLO 205 colon
[8] = tested on: DLD-1 colon
[9] = tested on: DMS 114 small cell lung
[10] = tested on: DMS 273 small cell lung
[11] = tested on: EKVX NSCLC
[12] = tested on: HCT-116 colon
[13] = tested on: HCT-15 colon
[14] = tested on: HOP-18 NSCLC
[15] = tested on: HOP-92 NSCLC
[16] = tested on: HT29 colon
[17] = tested on: IGROV1 ovarian
[18] = tested on: K-562 leukemia
[19] = tested on: KM12 colon
[20] = tested on: KM20L2 colon
[21] = tested on: LOX IMVI melanoma
[22] = tested on: LXFL 529 NSCLC
[23] = tested on: M14 melanoma
[24] = tested on: M19-MEL melanoma
[25] = tested on: MALME-3M melanoma
[26] = tested on: MOLT-4 leukemia
[27] = tested on: NCI-H226 lung
[28] = tested on: NCI-H23 lung
[29] = tested on: NCI-H460 lung
[30] = tested on: NCI-H522 lung
[31] = tested on: OVCAR-3 ovarian
[32] = tested on: OVCAR-5 ovarian
[33] = tested on: OVCAR-8 ovarian
[34] = tested on: RPMI-8226 leukemia
[35] = tested on: RXF 393 renal
[36] = tested on: SF-268 CNS
[37] = tested on: SF-539 CNS
[38] = tested on: SK-MEL-2 melanoma
[39] = tested on: SK-MEL-28 melanoma
[40] = tested on: SK-MEL-5 melanoma
[41] = tested on: SK-OV-3 ovarian
[42] = tested on: SN12C renal
[43] = tested on: SNB-19 CNS
[44] = tested on: SNB-75 CNS
[45] = tested on: SNB-78 CNS
[46] = tested on: SW-620 colon
[47] = tested on: TK-10 renal
[48] = tested on: U251 CNS
[49] = tested on: UACC-257 melanoma
[50] = tested on: UACC-62 melanoma
[51] = tested on: UO-31 renal
[52] = tested on: XF 498 CNS
[53] = tested on: HCC-2998 colon
[54] = tested on: HL-60(TB) leukemia
[55] = tested on: HOP-62 NSCLC
[56] = tested on: OVCAR-4 ovarian
[57] = tested on: SF-295 CNS
[58] = tested on: SR leukemia

Work on Cc1ccc(NC(=O)c2[nH]c(=S)nc(N)c2-c2ccccc2C)cc1C yielded a TGI [1] of over 100 µM, a TGI [2] of over 100 µM and a TGI [3] of over 100 µM. For the same compound, the TGI [4] was over 100 µM, the TGI [5] was over 100 µM and the TGI [6] was over 100 µM. For the same compound, the TGI [7] was over 100 µM, the TGI [8] was over 100 µM and the TGI [9] was over 100 µM. For the same compound, the TGI [10] was over 100 µM, the TGI [11] was over 100 µM and the TGI [12] was over 100 µM. For the same compound, the TGI [13] was over 100 µM, the TGI [14] was over 100 µM and the TGI [15] was over 100 µM. The TGI [16] was over 100 µM, the TGI [17] was over 100 µM and the TGI [18] was over 100 µM. The TGI [19] was over 100 µM, the TGI [20] was over 100 µM and the TGI [21] was over 100 µM. For the same compound, the TGI [22] was over 100 µM, the TGI [23] was over 100 µM and the TGI [24] was over 100 µM. For the same compound, the TGI [25] was over 100 µM, the TGI [26] was over 100 µM and the TGI [27] was over 100 µM. It also gave a TGI [28] of over 100 µM, a TGI [29] of over 100 µM and a TGI [30] of over 100 µM. For the same compound, the TGI [31] was over 100 µM, the TGI [32] was over 100 µM and the TGI [33] was over 100 µM. It also gave a TGI [34] of over 100 µM, a TGI [35] of over 100 µM and a TGI [36] of over 100 µM. It also gave a TGI [37] of over 100 µM, a TGI [38] of over 100 µM and a TGI [39] of over 100 µM. It also gave a TGI [40] of over 100 µM, a TGI [41] of over 100 µM and a TGI [42] of over 100 µM. The TGI [43] was over 100 µM, the TGI [44] was over 100 µM and the TGI [45] was over 100 µM. The TGI [46] was over 100 µM, the TGI [47] was over 100 µM and the TGI [48] was over 100 µM. It also gave a TGI [49] of over 100 µM, a TGI [50] of over 100 µM and a TGI [51] of over 100 µM. It also gave a TGI [52] of over 100 µM.
For CCCCCC(CN1CCOCC1)C(=O)/C=C/c1ccccc1 (stereo unspecified), the TGI [1] was 3.14 µM, the TGI [3] was 12 µM and the TGI [6] was 6.72 µM. The TGI [7] was 13.9 µM, the TGI [9] was 5.17 µM and the TGI [10] was 6.1 µM. For the same compound, the TGI [11] was 22.5 µM, the TGI [53] was 4.46 µM and the TGI [12] was 3.34 µM. The TGI [13] was 4.92 µM, the TGI [54] was 5.42 µM and the TGI [55] was 16.9 µM. It also gave a TGI [15] of 8.54 µM, a TGI [16] of 10.3 µM and a TGI [18] of 5.85 µM. It also gave a TGI [19] of 3.79 µM, a TGI [20] of 10.9 µM and a TGI [21] of 2.67 µM. For the same compound, the TGI [23] was 5.44 µM, the TGI [24] was 7.05 µM and the TGI [25] was 6.42 µM. The TGI [26] was 4.61 µM, the TGI [27] was 9.31 µM and the TGI [28] was 11.9 µM. The TGI [29] was 11.1 µM, the TGI [31] was 8.64 µM and the TGI [56] was 8.19 µM. For the same compound, the TGI [32] was 11.1 µM, the TGI [34] was 9.03 µM and the TGI [35] was 3.47 µM. The TGI [36] was 5.02 µM, the TGI [57] was 10.2 µM and the TGI [37] was 4.71 µM. It also gave a TGI [39] of 19.1 µM, a TGI [40] of 3.42 µM and a TGI [41] of 11.8 µM. For the same compound, the TGI [42] was 10.5 µM, the TGI [43] was 13.2 µM and the TGI [44] was 20 µM. It also gave a TGI [58] of 8.5 µM, a TGI [46] of 3.33 µM and a TGI [48] of 9.19 µM. For the same compound, the TGI [49] was 7.83 µM, the TGI [50] was 3.37 µM and the TGI [51] was 20.1 µM. For the same compound, the TGI [52] was 3.29 µM.
Compound NC(=S)/N=C/c1c(O)c2ccccc2oc1=O has a TGI [1] of over 100 µM, a TGI [2] of over 100 µM and a TGI [3] of over 100 µM. The TGI [4] was over 100 µM, the TGI [5] was 77.9 µM and the TGI [6] was over 100 µM. For the same compound, the TGI [7] was over 100 µM, the TGI [8] was over 100 µM and the TGI [9] was over 100 µM. The TGI [10] was over 100 µM, the TGI [11] was over 100 µM and the TGI [53] was over 100 µM. The TGI [12] was over 100 µM, the TGI [13] was over 100 µM and the TGI [54] was over 100 µM. For the same compound, the TGI [14] was over 100 µM, the TGI [15] was over 100 µM and the TGI [16] was over 100 µM. The TGI [17] was over 100 µM, the TGI [18] was over 100 µM and the TGI [19] was over 100 µM. It also gave a TGI [20] of over 100 µM, a TGI [21] of over 100 µM and a TGI [22] of over 100 µM. The TGI [23] was over 100 µM, the TGI [24] was over 100 µM and the TGI [25] was 99.4 µM. The TGI [26] was over 100 µM, the TGI [27] was over 100 µM and the TGI [28] was over 100 µM. For the same compound, the TGI [29] was over 100 µM, the TGI [30] was over 100 µM and the TGI [31] was over 100 µM. For the same compound, the TGI [56] was over 100 µM, the TGI [32] was over 100 µM and the TGI [33] was over 100 µM. The TGI [34] was over 100 µM, the TGI [35] was 86.4 µM and the TGI [36] was over 100 µM. For the same compound, the TGI [57] was over 100 µM, the TGI [37] was over 100 µM and the TGI [38] was 97.3 µM. For the same compound, the TGI [39] was over 100 µM, the TGI [40] was over 100 µM and the TGI [41] was over 100 µM. For the same compound, the TGI [42] was over 100 µM, the TGI [43] was over 100 µM and the TGI [44] was 87 µM. For the same compound, the TGI [45] was over 100 µM, the TGI [46] was over 100 µM and the TGI [47] was over 100 µM. It also gave a TGI [48] of over 100 µM, a TGI [49] of over 100 µM and a TGI [50] of over 100 µM. The TGI [51] was over 100 µM and the TGI [52] was over 100 µM.
O=C(O)c1ccc(NC(=O)C2C(=O)C(=O)N(c3ccc(C(=O)O)cc3)C2=O)cc1 (stereo unspecified) showed a TGI [1] of over 100 µM, a TGI [2] of over 100 µM and a TGI [3] of over 100 µM. For the same compound, the TGI [4] was over 100 µM, the TGI [5] was over 100 µM and the TGI [6] was over 100 µM. The TGI [7] was over 100 µM, the TGI [8] was over 100 µM and the TGI [10] was over 100 µM. The TGI [11] was over 100 µM, the TGI [53] was over 100 µM and the TGI [12] was over 100 µM. The TGI [13] was over 100 µM, the TGI [54] was over 100 µM and the TGI [55] was over 100 µM. The TGI [15] was over 100 µM, the TGI [16] was over 100 µM and the TGI [17] was over 100 µM. It also gave a TGI [18] of over 100 µM, a TGI [19] of over 100 µM and a TGI [20] of over 100 µM. The TGI [21] was over 100 µM, the TGI [24] was over 100 µM and the TGI [25] was over 100 µM. The TGI [26] was over 100 µM, the TGI [27] was over 100 µM and the TGI [28] was over 100 µM. It also gave a TGI [29] of over 100 µM, a TGI [30] of over 100 µM and a TGI [31] of over 100 µM. For the same compound, the TGI [56] was over 100 µM, the TGI [32] was over 100 µM and the TGI [33] was over 100 µM. The TGI [34] was over 100 µM, the TGI [35] was over 100 µM and the TGI [36] was over 100 µM. It also gave a TGI [57] of over 100 µM, a TGI [37] of over 100 µM and a TGI [38] of over 100 µM. The TGI [39] was over 100 µM, the TGI [41] was over 100 µM and the TGI [42] was over 100 µM. It also gave a TGI [43] of over 100 µM, a TGI [44] of over 100 µM and a TGI [45] of over 100 µM. The TGI [46] was over 100 µM, the TGI [47] was over 100 µM and the TGI [48] was over 100 µM. It also gave a TGI [49] of over 100 µM, a TGI [50] of over 100 µM and a TGI [51] of over 100 µM. For the same compound, the TGI [52] was over 100 µM.
